Experimental findings from US20260048060A1, “POLYCYCLIC THYROID HORMONE b RECEPTOR AGONIST AND USE THEREOF” (CASCADE PHARMACEUTICALS, INC., priority 2022, published 2026) are described below.

Assay [1] addresses T1, THRβ (Homo sapiens, UniProt P10828).
T1 construct: expressed in transfected cells; host or cells: HEK293T
T1 sequence (P10828 217-461): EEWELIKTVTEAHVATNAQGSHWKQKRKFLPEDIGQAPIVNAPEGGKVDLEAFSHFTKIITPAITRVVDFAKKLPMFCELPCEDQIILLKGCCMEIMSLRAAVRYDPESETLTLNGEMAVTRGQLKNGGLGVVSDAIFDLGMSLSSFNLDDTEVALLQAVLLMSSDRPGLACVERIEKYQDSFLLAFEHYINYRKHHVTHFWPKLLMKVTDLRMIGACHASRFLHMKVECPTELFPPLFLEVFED
Kind of assay: Reporter gene (GAL4-THRβ-LBD / Dual-Glo luciferase) agonist activity assay in HEK293T cells. Conditions: ratio of reporter gene EC50 values THRα/THRβ. Type of assay: cell-based. The text has this: Experimental Example 1: Detection of THRα and THRβ Agonist Activities of Compounds Based on Reporter Gene Activity Assay Method
1.1 Construction and Preparation of Plasmids pGAL4-THR-LBD and pG5-Luc
The pGAL4-THRα-LBD and pGAL4-THRβ-LBD plasmids used in the reporter gene assay system were constructed by a conventional molecular cloning method comprising the following main steps: the cDNA sequences of THRα (NM_003250) and THRβ (NM_000461) corresponding to the amino acid sequences of THRα (163-407AA) and THRβ (217-461AA) were inserted into the BamHI and NotI enzyme digestion sites of the pGAL4 vector by the PCR technique respectively to obtain the pGAL4-THRα-LBD and pGAL4-THRβ-LBD plasmids; the pG5-Luc (#E249A) and pRL-TK (#E2241) plasmids were purchased from Promega; the plasmids were transfected into the E. coli DH5α by the CaCl2 method, and after further culture and amplification, the plasmids were purified by Plasmid Extraction Kits (TIANGEN, #D107) to obtain the corresponding plasmid DNAs.
1.2 Co-Transfection of Plasmids into HEK293T Cells and Treatment with Compounds
The HEK293T cells were inoculated into a 96-well plate at a density of 1×10^4/well the day before plasmid transfection. Cell transfection was conducted according to the instructions of the transfection reagent FuGENE® HD (Promega, #E2311). The main steps were as follows: taking one well as an example here, the plasmids pGAL4-THRα-LBD or pGAL4-THRβ-LBD, pG5-Luc, and pRL-TK were added in the proportions of 20 ng, 50 ng, and 5 ng to 10 μL of Opti-MEM™ I medium (Gibco, #11058021) and mixed well; subsequently, 0.25 uL of FuGENE® HD was added, mixed well, and then left at room temperature for 5 min; afterwards, 10 μL of the mixture was added to the cell wells containing 100 μL of culture medium. After cell co-transfection for 6 h, the compound was diluted in a 3-fold gradient with dimethyl sulfoxide at the highest concentration of 1 uM. The compound was added to the cell culture medium at a total of 10 concentrations for treatment for 24 h. There were a total of two duplicate wells for each concentration. Triiodothyronine (T3) was used as the positive control.
1.3 Dual-Glo Luciferase Assay
After the cells were treated with the compound for 24 h, the cells were assayed according to the instructions of Dual-Glo® Luciferase Assay System (Promega, #E2940). The main steps were as follows: 50 μL of culture medium was aspirated from each well and discarded, and then 50 μL of Dual-Glo® Luciferase reagent was added and oscillated at room temperature for 10 min; 80 μL of lysis reaction solution was measured into a white opaque optiPlate-96-well plate, and the luminescence signal value (Firefly-Luc) of the Firefly luciferase was detected using an MD i3x multi-mode microplate reader; 40 μL of Dual-Glo® Stop & Glo® reagent was then added, and oscillated at room temperature for 10 min; the luminescence signal value (Renilla-Luc) of the Renilla luciferase was then detected using an MD i3x multi-mode microplate reader. The Firefly-Luc/Renilla-Luc ratio was used as the activation activity of the compound against THR, and the ratio in the solvent DMSO group was used for normalization; the dose-response curve was fitted with four parameters using the GraphPad Prism6.0 software, and the EC50 value was calculated.

In assay [2] the target is T2, THRβ (Homo sapiens, UniProt P10828).
T2 construct: made in house; host or cells: E. coli BL21 (DE3)
T2 sequence (P10828 217-461 limits assumed): T1 sequence (P10828 217-461)
The assay can be described thus: Time-resolved FRET (THR-FRET) agonist activity assay, GST-tagged THRβ LBD with SRC2 polypeptide. The format is biochemical. The following applies: ratio of THR-FRET EC50 values THRα/THRβ. From the text:
Experimental Example 2: Detection of Agonist Activities of Compounds Against THRα/β Based on Time-Resolved Fluorescence Resonance Energy Transfer (THR-FRET)
By visiting NCBI, the THRα/β LBD domain sequences were found. The pET21-His-GST-dLBT-THRα LBD and pET21-His-GST-dLBT-THRβ LBD overexpression vectors were constructed by the fusion method, and sequenced to confirm the accuracy of the sequences.
The correctly sequenced THRα LBD and THRβ LBD overexpression vectors were transfected into E. coli cells BL21 (DE3), and spread on an agar plate with ampicillin. Monoclones were picked out and amplified in an LB medium, and transferred into 1 L LB at a ratio of 1:100 for large-scale culture. When the OD value was at 0.8 to 1.2, 0.5 mM isopropyl-beta-D-thiogalactopyranoside (IPTG) was added, and induced overnight at 18° C. The bacteria were harvested, disrupted, and purified via the GST column and the molecular sieve to obtain two proteins His-GST-dLBT-THRα LBD and His-GST-dLBT-THRβ LBD.
The proteins were taken out from a refrigerator at −80° C. The proteins with the GST-tagged THRα/β LBD domain and the Eu-labelled GST antibodies were thawed slowly on ice, and an assay buffer containing a final concentration of 5 mM dithiothreitol (DTT) was formulated.
The starting concentration of the compound was 100 μM (in DMSO). The compound (100 μM in DMSO) was subjected to 3-fold isogradient dilution with DMSO to obtain a total of 11 isogradient concentrations. Subsequently, the above compounds at the isogradient concentration were further subjected to 50-fold dilution with an assay buffer containing 5 mM DTT.
The final concentrations of all components were calculated based on a system with a final volume of 20 μL per well. To 18 μL of assay buffer containing 5 mM DTT, the GST-tagged THRα/β proteins, the SRC2 ([…]) polypeptide, XL665 (Cisobio, #610SAXLB), and the Eu-labeled GST antibody were added, and the final concentrations were 2 nM, 200 nM, 0.05 nM, and 7.6 nM respectively to formulate 18 μL of reaction mixture of the proteins, polypeptide, and antibody per well.
18 μL of reaction mixture and 2 μL of diluted compound were added into an optiplate-384-well plate, and reacted at room temperature for 24 h.
The plate was read using an MD i3X multi-mode microplate reader with the excitation and emission wavelengths of 340 nm and 665 nm, respectively. The intensity of light at a wavelength of 616 nm generated by europium excited by 340 nm wavelength light from the MD i3X multi-mode microplate reader was used as the background. According to the different activation degrees of different compounds against THRα and THRβ, the intensity of the emission light at a wavelength of 665 nm generated by exciting XL665 with the exciting light at a wavelength of 616 nm was varied. The intensity ratio between these two light wavelengths (665 nm, 616 nm) was used as the activation activity of the compound against THRα or THRβ, and the ratio in the solvent DMSO group was used for normalization. The dose-response curve was fitted with four parameters using the GraphPad Prism 6.0 software, and the EC50 value was calculated.

As to `[2H]C([2H])([2H])NC(=O)c1ccccc1OCc1c(Br)cc(-n2nc(C([2H])(F)F)c(=O)[nH]c2=O)cc1Br` [Compound 112], the “Selectivity (THRα/THRβ)” value was “† (†: 5 ≥ THRα/β;)” on THRβ [1] and “†† (††: 10 ≥ THRα/β;)” at THRβ [2].

For `[2H]C(Oc1ccccc1C(=O)NC([2H])([2H])[2H])c1c(Br)cc(-n2nc(C(F)F)c(=O)[nH]c2=O)cc1Br` (stereo not drawn) [Compound 110], the “Selectivity (THRα/THRβ)” value at THRβ [1] was “† (†: 5 ≥ THRα/β;)”; at THRβ [2], “†† (††: 10 ≥ THRα/β;)”.

On to `COc1ccc(OCc2c(Cl)cc(-n3ncc(=O)[nH]c3=O)cc2Cl)c(C(N)=O)c1` [Compound 69], for which the “Selectivity (THRα/THRβ)” value at THRβ [1] was “† (†: 5 ≥ THRα/β;)”; at THRβ [2], “††† (†††: 20 ≥ THRα/β > 10;)”.

As for `NC(=O)c1ccccc1OCc1c(Cl)cc(-n2nc(C(F)F)c(=O)[nH]c2=O)cc1Cl` [Compound 54], the “Selectivity (THRα/THRβ)” value was “† (†: 5 ≥ THRα/β;)” on THRβ [1] and “†† (††: 10 ≥ THRα/β;)” at THRβ [2].

In the case of `NC(=O)c1sccc1OCc1c(Cl)cc(-n2ncc(=O)[nH]c2=O)cc1Cl` [Compound 45], the “Selectivity (THRα/THRβ)” value is “† (†: 5 ≥ THRα/β;)” on THRβ [1] and “†† (††: 10 ≥ THRα/β;)” on THRβ [2].

Consider `NC(=O)c1ccccc1OCc1c(Cl)cc(-n2ncc(=O)[nH]c2=O)cc1Cl` [Compound 14], for which the “Selectivity (THRα/THRβ)” value at THRβ [1] is “† (†: 5 ≥ THRα/β;)”; at THRβ [2], “†† (††: 10 ≥ THRα/β;)”.

Consider `[2H]C(Oc1ccccc1C(=O)NC)c1c(Br)cc(-n2nc(C([2H])(F)F)c(=O)[nH]c2=O)cc1Br` (stereo not drawn) [Compound 111], for which the figures for the “Selectivity (THRα/THRβ)” value on THRβ [1] and on THRβ [2] were “† (†: 5 ≥ THRα/β;)” and “†† (††: 10 ≥ THRα/β;)”, respectively.

Take `[2H]C(Oc1ccccc1C(=O)NC)c1c(Br)cc(-n2nc(C(F)F)c(=O)[nH]c2=O)cc1Br` (stereo not drawn) [Compound 106]: the results for the “Selectivity (THRα/THRβ)” value on THRβ [1] and on THRβ [2] were “† (†: 5 ≥ THRα/β;)” and “†† (††: 10 ≥ THRα/β;)”, respectively.

For the molecule `CNC(=O)c1ccccc1SCc1c(Br)cc(-n2ncc(=O)[nH]c2=O)cc1Br` [Compound 25], the “Selectivity (THRα/THRβ)” value was “† (†: 5 ≥ THRα/β;)” on THRβ [1] and “††† (†††: 20 ≥ THRα/β > 10;)” at THRβ [2].
